Measurements as given in patent US12377100B2 (GILEAD SCIENCES, INC., priority 2015, dated 2025).

Experiments:
[1] = Cytotoxicity assay, Huh-7 cells, Cell Titer Glo, 5 days; format: cell-based, human; settings: human, Huh-7 cells; Huh-7, five days incubation, intracellular ATP; read-out: CC50 HUH7 CTG 5D
Source text: (§1) To assess potential off-target toxicity of certain compounds disclosed herein, the in vitro cytotoxicity of those compounds was profiled using a panel of 5 cell lines with various tissue origins. Compound cytotoxicity was examined in hepatoma-derived Huh-7 and HepG2 cells, prostate carcinoma-derived PC-3 cells, lymphoma derived MT-4 cells and a normal diploid lung cell line MRC-5. HepG2 and PC-3 cells used were adapted to grow in glucose-free galactose-containing medium. These cells have a relatively higher sensitivity to inhibitors of mitochondrial oxidative phosphorylation compared to the same cells maintained in standard glucose-containing culture medium (Marroquin et al., Toxicol. Sci. 2007; 97 (2):539-47). Cell viability was determined by measuring intracellular ATP levels following five days of continuous incubation with test compounds.
(§2) The human hepatoma Huh-7 cell line was obtained from ReBLikon GmbH (Mainz, Germany) {20879}. The MT-4 cell line (HTLV-1 transformed, human T lymphoblastoid cells) was obtained from the NIH AIDS Reagent program (Bathesda, MD). The human hepatoblastoma cell line HepG2, human prostate carcinoma cell line PC-3, and normal fetal lung derived MRC-5 cells were obtained from the American Type Culture Collection (ATCC, Manassas, VA).
(§3) Huh-7 cells were maintained in Dulbecco's Modified Eagle Medium (DMEM) supplemented with 10% fetal bovine serum (FBS, Hyclone, Logan, UT), 1% non-essential amino acids (Gibco, Carlsbad, CA). PC-3 and HepG2 cells were adapted to grow in 0.2% galactose-containing, glucose-free Dulbecco's Modified Eagle Medium (DMEM) supplemented with 10% fetal bovine serum (FBS, Hyclone, Logan, UT), 1% non-essential amino acids (Gibco, Carlsbad, CA), 1% Pyruvate (Cellgro), 1% Glutamax (Invitrogen, Carlsbad, CA). Galactose-adapted cells were maintained in the same culture medium. MRC-5 cells were maintained in Eagle's Minimum Essential Medium (EMEM) supplemented with 10% fetal bovine serum (FBS, Hyclone, Logan, UT). MT-4 cells were maintained in RPMI-1640 supplemented with 10% fetal bovine serum (FBS, Hyclone, Logan, UT). All cell culture media were also supplemented with 100 Units/mL penicillin, 100 μg/mL streptomycin (Gibco).
(§4) Using a Biotek uFlow Workstation (Biotek, Winooski, VT), 1500 HepG2, 1500 PC-3, 500 Huh7 or 1500 MRC-5 cells in 90 μL of culture media were dispensed into each well of black polystyrene tissue culture-treated 384-well plates. Plated cells were incubated for 24 hours in an incubator at 37° C., 5% CO2 and 90% humidity. Compound serial dilutions were performed in 100% DMSO in 384-well polypropylene (high recovery) plates on a Biomek FX Workstation (Beckman Coulter, Fullerton, CA). After 3-fold serial dilutions, 0.4 μL of compounds were transferred into 384-well plates containing cells using a Velocity 11 system equipped with a Bravo 384-well pipettor. The DMSO concentration in the final assay plates was 0.44% (v/v). Cells were incubated with compound(s) for five days at 37° C. Puromycin (44 μM final concentration) and DMSO (0.44%, v/v) were used as a positive and negative controls, respectively
(§5) At the end of the incubation period the cytotoxicity assay was performed as follows: Media from 384-well cell culture plates were aspirated with a Biotek EL405 plate-washer (Biotek) and cells were washed with 100 μL PBS once. Twenty microliters of Cell Titer Glo (Promega, Madison, WI) was added to each well of the plates with a Biotek uFlow liquid dispenser. Plates were incubated for 15 minutes at room temperature before luminescence was measured with a Perkin Elmer Envision Plate Reader (Perkin Elmer, Waltham, MA).
(§6) CC50 values were defined as the compound concentration that caused a 50% decrease in luminescence signal, and were calculated by non-linear regression using Pipeline Pilot software by applying a four parameter fit equation (Accelrys, San Diego, CA). Individual CC50 values are listed as μM concentrations.

[2] = Cytotoxicity assay, galactose-adapted HepG2 cells, Cell Titer Glo, 5 days; format: cell-based; settings: human, galactose-adapted HepG2, five days incubation, intracellular ATP, read-out: CC50 GALHEPG2 CTG 5D
Source text: as §1, §2, §3, §4, §5, §6

[3] = MT-4 cytotoxicity assay, Cell Titer Glo, 5 days; format: cell-based, human; settings: human, MT-4 cells; MT-4, five days incubation, intracellular ATP; read-out: CC50 (MT4)
Source text: as §1, §2, §3
For the MT-4 cytotoxicity assay, 0.4 μL of serially diluted compounds were added to 40 μl of cell maintenance media in 384-well black, solid bottom plate using a Biomek FX workstation (Beckman Coulter). Two thousand cells in 35 μL were added to each well using a Biotek uFlow Workstation (Biotek). Each assay plate contained 10 μM Puromycin (final concentration) and 0.5% DMSO in RPMI-1640 as positive and negative controls, respectively. Assay plates were incubated for five days at 37° C. in an incubator set at 5% CO2 and 90% humidity. After five days, 22 μL of Cell Titer Glo reagent (Promega) was added to the assay plates with a Biotek uFlow Workstation. Plates were subsequently placed on a Perkin Elmer Envision Plate Reader for five minutes before the luminescence signal was read.
as §6

IL12p40 = test: PBMC cytokine profiling assay, IL12-p40 induction; format: cell-based; settings: human PBMCs, 24 hours incubation
How it was run: (§7)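 Cryopreserved healthy-donor human PBMCs (100k cells/well) were exposed for 24 h at 37 °C to a 10-point half-log compound series in 0.5% final DMSO. Secreted cytokines in the conditioned medium were quantified by MSD electrochemiluminescence, with TNFα samples diluted 1:9. AC50 was fitted by non-linear regression on percent activation normalised to plate controls.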

[4] = Cytotoxicity assay, MRC-5 cells, Cell Titer Glo, 5 days; format: cell-based, human; settings: human, MRC-5 cells; MRC-5, five days incubation, intracellular ATP; read-out: CC50 MRC5 CTG 5D
Source text: as §1, §2, §3, §4, §5, §6

TNFα = test: PBMC cytokine profiling assay, TNFα induction; format: cell-based; settings: human PBMCs, 24 hours incubation
How it was run: as §7

IFNα = test: PBMC cytokine profiling assay, IFNα induction; format: cell-based; settings: human PBMCs, 24 hours incubation
How it was run: as §7

[5] = Cytotoxicity assay, galactose-adapted PC-3 cells, Cell Titer Glo, 5 days; format: cell-based; settings: human, galactose-adapted PC-3, five days incubation, intracellular ATP, read-out: CC50 GALPC3 CTG 5D
Source text: as §1, §2
as §3, with “(Gibco). […]” for “(Gibco).”
as §5, with “Twenty microliters of Cell Titer Glo (Promega, Madison, WI) was added to each well of the plates with a Biotek uFlow liquid dispenser.” left out, “MA). […]” for “MA).”

Huh-7 cells = test: Cytotoxicity assay, Huh-7 cells, Cell Titer Glo, 5 days; format: cell-based, human; settings: Huh-7, five days incubation, intracellular ATP; read-out: CC50 HUH7 CTG 5D
Source text: as §1, §2, §3, §4, §5, §6

MRC-5 cells = test: Cytotoxicity assay, MRC-5 cells, Cell Titer Glo, 5 days; format: cell-based, human; settings: MRC-5, five days incubation, intracellular ATP; read-out: CC50 MRC5 CTG 5D
Source text: as §1, §2, §3, §4, §5, §6

| SMILES | AC50 (IL12p40; Homo sapiens, PBMC, 24 h) | AC50 (TNFα; Homo sapiens, PBMC, 24 h) | AC50 (IFNα; Homo sapiens, PBMC, 24 h) | CC50 (Huh-7 cells) | CC50 (MRC-5 cells) | further results |
| --- | --- | --- | --- | --- | --- | --- |
| CCC[C@@H](CO)Nc1nc(N)nc2cc(F)c(F)cc12 [X, reference compound] | 0.97 µM | 1.2 µM | 7.1 µM | – | – | CC50 at 5 days [1]: 16.9 µM; CC50 at 5 days [2]: 7.85 µM; CC50 at 5 days [3]: 53.8 µM; CC50 at 5 days [4]: 20.9 µM; CC50 at 5 days [5]: 6.79 µM |
| CCCC[C@@](C)(CO)Nc1nc(N)nc2cc(F)cnc12 [Example 64, (S)-2-((2-amino-7-fluoropyrido[3,2-d]pyrimidin-4-yl)amino)-2-methylhexan-1-ol] | 3.2 µM | 3.1 µM | 37.9 µM | – | – | CC50 at 5 days [3]: 0.79 µM; CC50 at 5 days [5]: 1.55 µM |
| CCCC[C@H](CO)Nc1nc(N)nc2cccnc12 [Example 15, (R)-2-((2-aminopyrido[3,2-d]pyrimidin-4-yl)amino)hexan-1-ol] | 1.2 µM | 1.6 µM | > 200 µM | – | – | CC50 at 5 days [1]: 10.7 µM |
| CCCC[C@@H](Nc1nc(N)nc2cc(F)cnc12)C(O)CF (stereo partly drawn) [Example 102, (3R)-3-((2-amino-7-fluoropyrido[3,2-d]pyrimidin-4-yl)amino)-1-fluoroheptan-2-ol] | 0.76 µM | 0.81 µM | > 50 µM | 44.4 µM | 44.4 µM | – |
| CCCC[C@@](C)(Nc1nc(N)nc2cccnc12)C(C)O (single isomer, unassigned) [Example 97] | – | – | – | 44.4 µM | 44.4 µM | CC50 at 5 days [3]: 50 µM; AC50 (IL12p40): 0.13 µM; AC50 (TNFα): 0.14 µM; AC50 (IFNα): 26 µM |
| CCCC[C@](CO)(Nc1nc(N)nc2cccnc12)C(F)(F)F [Example 93, (R)-2-((2-aminopyrido[3,2-d]pyrimidin-4-yl)amino)-2-(trifluoromethyl)hexan-1-ol] | 0.4 µM | 0.44 µM | > 50 µM | 44.4 µM | – | CC50 at 5 days [4]: 38.8 µM |
| CCCC[C@H](CNC(C)=O)Nc1nc(N)nc2cccnc12 [Example 51, (R)—N-(2-((2-aminopyrido[3,2-d]pyrimidin-4-yl)amino)hexyl)acetamide] | 0.33 µM | 0.37 µM | > 200 µM | 44.4 µM | 44.4 µM | CC50 at 5 days [2]: 44.4 µM |
| CCCC[C@](C)(CNC(C)=O)Nc1nc(N)nc2cc(F)cnc12 [Example 101, (R)—N-(2-((2-amino-7-fluoropyrido[3,2-d]pyrimidin-4-yl)amino)-2-methylhexyl)acetamide] | 0.11 µM | 0.1 µM | > 50 µM | 44.4 µM | 44.4 µM | CC50 at 5 days [2]: 44.4 µM; CC50 at 5 days [3]: 50 µM |
| CCCC[C@](C)(CNC(C)=O)Nc1nc(N)nc2cccnc12 [Example 61] | 0.02 µM | 0.02 µM | 42.1 µM | 44.4 µM | 44.4 µM | CC50 at 5 days [2]: 44.4 µM |
| CCCC[C@@](C)(Nc1nc(N)nc2cc(F)cnc12)C(C)O (single isomer, unassigned) [Example 95] | – | – | – | – | 44.4 µM | AC50 (IL12p40): 0.15 µM; AC50 (TNFα): 0.15 µM; AC50 (IFNα): > 50 µM |
| CCCC[C@](C)(CNC(C)=O)Nc1nc(N)nc2cc(Cl)cnc12 [Example 65, (R)—N-(2-((2-amino-7-chloropyrido[3,2-d]pyrimidin-4-yl)amino)-2-methylhexyl)acetamide] | 0.09 µM | 0.11 µM | > 50 µM | 44.4 µM | 44.4 µM | CC50 at 5 days [2]: 44.4 µM; CC50 at 5 days [3]: 50 µM |
| CCC[C@@H](CO)Nc1nc(N)nc2cc(OC)cnc12 [Example 42B, (S)-2-((2-amino-7-methoxypyrido[3,2-d]pyrimidin-4-yl)amino)pentan-1-ol] | 0.9 µM | 1.1 µM | 3.6 µM | – | – | – |
| CCCC[C@@H](Nc1nc(N)nc2cccnc12)[C@@H](O)C(F)(F)F [Example 89, (2R,3R)-3-((2-aminopyrido[3,2-d]pyrimidin-4-yl)amino)-1,1,1-trifluoroheptan-2-ol] | 1.7 µM | 2.2 µM | > 50 µM | – | – | – |
| CCCCC[C@H](CO)Nc1nc(N)nc2cccnc12 [Example 75, (R)-2-((2-aminopyrido[3,2-d]pyrimidin-4-yl)amino)heptan-1-ol] | 3.3 µM | 4 µM | 20.3 µM | – | – | – |
| C=CC[C@](C)(CO)Nc1nc(N)nc2cccnc12 [Example 81, (R)-2-((2-aminopyrido[3,2-d]pyrimidin-4-yl)amino)-2-methylpent-4-en-1-ol] | 7.8 µM | 7.6 µM | > 50 µM | – | – | – |
| CCC[C@@H](CO)Nc1nc(N)nc2cc(Br)cnc12 [Example 18F, (S)-2-((2-amino-7-bromopyrido[3,2-d]pyrimidin-4-yl)amino)pentan-1-ol] | 15.2 µM | 16.1 µM | 30.6 µM | – | – | – |
| CCC[C@H](Nc1nc(N)nc2cccnc12)C(=O)NCC(C)(C)O [Example 35, (S)-2-((2-aminopyrido[3,2-d]pyrimidin-4-yl)amino)-N-(2-hydroxy-2-methylpropyl)pentanamide] | 22.6 µM | 39.4 µM | > 50 µM | – | – | – |
| CCCCC(C)(CO)Nc1nc(N)nc2cc(F)cnc12 (stereo not drawn) [Example 63, 2-((2-amino-7-fluoropyrido[3,2-d]pyrimidin-4-yl)amino)-2-methylhexan-1-ol] | 0.43 µM | 0.41 µM | 22.4 µM | – | – | – |
| CCCC[C@H](CO)Nc1nc(N)nc2cc(F)c(F)cc12 [Example 46C, (R)-2-((2-amino-6,7-difluoroquinazolin-4-yl)amino)hexan-1-ol] | 28.5 µM | 28.6 µM | > 50 µM | – | – | – |
| C=Cc1cnc2c(N[C@@H](CO)CCCC)nc(N)nc2c1 [Example 70, (R)-2-((2-amino-7-vinylpyrido[3,2-d]pyrimidin-4-yl)amino)hexan-1-ol] | 2.7 µM | 3.3 µM | > 50 µM | – | – | – |
